Columns and labels:
Assay type in all cases: biochemical
CaMKK2 (h) = molecular target: T1, CaMKK2 (h) (Homo sapiens, UniProt Q96RR4); assay: CAMKK2 kinase activity assay (DiscoverX/Eurofins, radiometric [gamma-33P]-ATP); conditions: ATP concentration of 10 µM
T1 construct: purchased DiscoverX/Eurofins
Description: The assay is available as a product of DiscoverX/Eurofins. CaMKK2 (h) was incubated with 20 mM Tris/HCl pH 8.5, 0.2 mM EDTA, 0.5% BSA, 0.5 mM CaCl2, 0.016 mg/mL calmodulin, 150 µM […], 10 mM MgAcetate and [gamma-33P]-ATP (specific activity and concentration of 10 µM). The reaction was initiated by the addition of the Mg/ATP mix. After incubation for 40 min 13 at room temperature, the reaction was stopped by the addition of phosphoric acid to a concentration of 0.5%. An aliquot of the reaction was then spotted onto a filter and washed four times for 4 min in 0.425% phosphoric acid and once in methanol prior to drying and scintillation counting.

ATM (h) = molecular target: T2, ATM (h) (Homo sapiens, UniProt Q13315); assay: ATM kinase activity assay (DiscoverX/Eurofins, HTRF); conditions: ATP 10 µM; for remaining activity at 10 µM: compound at 10 μM, read-out: ATM residual activity at 10μM
T2 construct: purchased DiscoverX/Eurofins
Description: (§1) The assay is available as a product of DiscoverX/Eurofins. ATM (h) was incubated in assay buffer containing 30 nM GST-cMyc-p53 and Mg/ATP (concentration of 10 µM). The reaction is initiated by the addition of the Mg/ATP mix. After incubation for 30 min at room temperature, the reaction was stopped by the addition of stop solution containing EDTA. Finally, detection buffer was added, which contained a d2-labelled anti-GST monoclonal antibody and a europium-labelled anti-phospho Ser15 antibody against phosphorylated p53. The plate was then read in time-resolved fluorescence mode, and the homogeneous time-resolved fluorescence (HTRF) signal is determined according to the formula HTRF = 10000 x (Em665 nm/Em620 nm).

ATR/ATRIP (h) = molecular target: T3, ATR/ATRIP (h) (Homo sapiens, UniProt Q13535); assay: ATR kinase activity assay (DiscoverX/Eurofins, HTRF); conditions: ATP 10 µM
T3 construct: purchased DiscoverX/Eurofins
Description: as §1, with “DiscoverX/Eurofins. ATR/ATRIP” for “DiscoverX/Eurofins. ATM”, “containing 50” for “containing 30”, “reaction was” for “reaction is”, “plate is” for “plate was”, “signal was” for “signal is”, “= 10,000 ×” for “= 10000 x”

DNA-PK (h) = molecular target: T4, DNA-PK (h) (Homo sapiens, UniProt P78527); assay: DNA-PK kinase activity assay (DiscoverX/Eurofins, HTRF); conditions: ATP 10 µM
T4 construct: purchased DiscoverX/Eurofins
Description: as §1, with “DiscoverX/Eurofins. DNA-PK” for “DiscoverX/Eurofins. ATM”, “containing 50” for “containing 30”, “plate is” for “plate was”, “= 10,000 ×” for “= 10000 x”

T2 sequence (Q13315 whole entry): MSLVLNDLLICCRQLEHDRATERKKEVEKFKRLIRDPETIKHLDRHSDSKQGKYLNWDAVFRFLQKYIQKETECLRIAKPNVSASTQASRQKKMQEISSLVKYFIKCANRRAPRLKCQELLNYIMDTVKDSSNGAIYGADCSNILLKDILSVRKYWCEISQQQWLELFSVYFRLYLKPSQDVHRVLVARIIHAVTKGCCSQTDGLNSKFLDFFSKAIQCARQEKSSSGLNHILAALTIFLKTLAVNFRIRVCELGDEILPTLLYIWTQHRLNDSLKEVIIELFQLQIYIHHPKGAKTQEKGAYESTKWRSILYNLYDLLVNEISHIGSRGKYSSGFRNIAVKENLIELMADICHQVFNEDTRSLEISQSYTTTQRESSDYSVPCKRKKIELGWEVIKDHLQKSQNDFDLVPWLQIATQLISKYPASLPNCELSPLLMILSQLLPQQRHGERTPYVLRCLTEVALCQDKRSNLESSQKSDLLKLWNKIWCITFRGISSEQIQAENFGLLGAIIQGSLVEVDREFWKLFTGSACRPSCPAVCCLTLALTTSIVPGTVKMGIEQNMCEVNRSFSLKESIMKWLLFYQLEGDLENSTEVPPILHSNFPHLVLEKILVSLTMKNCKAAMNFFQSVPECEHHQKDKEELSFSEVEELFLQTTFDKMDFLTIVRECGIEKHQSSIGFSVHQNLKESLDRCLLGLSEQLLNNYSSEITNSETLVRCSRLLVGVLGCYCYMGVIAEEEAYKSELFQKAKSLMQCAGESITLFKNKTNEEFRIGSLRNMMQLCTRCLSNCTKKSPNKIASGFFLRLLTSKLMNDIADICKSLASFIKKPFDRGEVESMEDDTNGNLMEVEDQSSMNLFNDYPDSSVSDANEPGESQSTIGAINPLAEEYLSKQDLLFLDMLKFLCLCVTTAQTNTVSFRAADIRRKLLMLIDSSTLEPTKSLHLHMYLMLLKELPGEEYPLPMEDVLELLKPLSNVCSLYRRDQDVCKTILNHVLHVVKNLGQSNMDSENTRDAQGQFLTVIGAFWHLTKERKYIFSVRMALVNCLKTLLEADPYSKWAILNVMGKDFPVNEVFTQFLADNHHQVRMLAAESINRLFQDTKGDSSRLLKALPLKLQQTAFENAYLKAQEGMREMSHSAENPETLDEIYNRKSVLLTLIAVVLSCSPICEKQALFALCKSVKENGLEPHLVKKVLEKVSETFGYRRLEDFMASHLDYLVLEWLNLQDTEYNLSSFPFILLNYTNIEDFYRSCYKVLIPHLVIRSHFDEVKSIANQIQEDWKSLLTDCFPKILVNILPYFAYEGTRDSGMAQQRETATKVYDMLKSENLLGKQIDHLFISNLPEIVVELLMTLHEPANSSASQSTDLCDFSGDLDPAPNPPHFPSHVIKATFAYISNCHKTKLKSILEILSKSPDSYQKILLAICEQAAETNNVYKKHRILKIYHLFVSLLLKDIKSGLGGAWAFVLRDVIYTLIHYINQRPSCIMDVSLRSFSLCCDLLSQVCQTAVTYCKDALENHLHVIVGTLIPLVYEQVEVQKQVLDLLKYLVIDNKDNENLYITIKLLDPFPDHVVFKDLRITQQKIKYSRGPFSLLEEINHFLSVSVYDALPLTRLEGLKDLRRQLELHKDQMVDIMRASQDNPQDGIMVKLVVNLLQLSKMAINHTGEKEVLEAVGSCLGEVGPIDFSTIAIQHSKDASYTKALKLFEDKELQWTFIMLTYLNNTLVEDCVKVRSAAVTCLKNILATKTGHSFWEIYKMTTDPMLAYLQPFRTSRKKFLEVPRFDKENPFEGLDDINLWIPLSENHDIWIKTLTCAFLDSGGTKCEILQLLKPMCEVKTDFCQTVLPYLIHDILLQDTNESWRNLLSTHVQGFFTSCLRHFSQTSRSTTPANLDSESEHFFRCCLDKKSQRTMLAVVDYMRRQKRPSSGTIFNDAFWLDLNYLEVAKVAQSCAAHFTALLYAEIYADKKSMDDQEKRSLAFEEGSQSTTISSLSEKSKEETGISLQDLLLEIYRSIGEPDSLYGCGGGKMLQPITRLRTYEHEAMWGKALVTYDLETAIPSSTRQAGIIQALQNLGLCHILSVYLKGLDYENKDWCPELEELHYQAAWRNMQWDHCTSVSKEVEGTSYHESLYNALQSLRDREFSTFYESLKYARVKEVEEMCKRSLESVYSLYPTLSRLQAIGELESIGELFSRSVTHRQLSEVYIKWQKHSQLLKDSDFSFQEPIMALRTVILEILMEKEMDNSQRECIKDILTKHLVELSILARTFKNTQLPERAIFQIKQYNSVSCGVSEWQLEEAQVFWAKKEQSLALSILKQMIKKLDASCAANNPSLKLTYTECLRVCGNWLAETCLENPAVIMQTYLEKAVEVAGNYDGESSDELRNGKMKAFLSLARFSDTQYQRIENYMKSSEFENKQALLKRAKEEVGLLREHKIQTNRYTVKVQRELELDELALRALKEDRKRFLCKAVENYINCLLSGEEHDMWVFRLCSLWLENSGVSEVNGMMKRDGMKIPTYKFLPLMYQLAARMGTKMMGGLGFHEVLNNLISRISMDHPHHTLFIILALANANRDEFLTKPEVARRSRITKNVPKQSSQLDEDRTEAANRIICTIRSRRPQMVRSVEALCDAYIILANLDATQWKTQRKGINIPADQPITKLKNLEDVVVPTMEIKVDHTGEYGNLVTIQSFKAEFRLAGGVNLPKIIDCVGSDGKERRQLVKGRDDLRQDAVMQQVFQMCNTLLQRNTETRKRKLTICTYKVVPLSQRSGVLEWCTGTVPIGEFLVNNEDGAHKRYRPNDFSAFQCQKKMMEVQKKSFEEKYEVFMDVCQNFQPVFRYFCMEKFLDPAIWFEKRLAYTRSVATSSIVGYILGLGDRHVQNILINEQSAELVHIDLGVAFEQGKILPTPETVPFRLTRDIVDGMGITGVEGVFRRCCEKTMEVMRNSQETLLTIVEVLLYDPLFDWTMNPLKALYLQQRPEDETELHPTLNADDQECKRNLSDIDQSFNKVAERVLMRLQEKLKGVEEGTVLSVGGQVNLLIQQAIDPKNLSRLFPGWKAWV

| IC50 (CaMKK2 (h)) [µM] | hill slope (CAMKK2 dose-response) (CaMKK2 (h)) | remaining activity at 10 µM (ATM (h)) [%] | SMILES | also measured |
| --- | --- | --- | --- | --- |
| > 10 | – | – | CC(=O)c1cn(-c2ccn3ncc(-c4cccc(C(=O)C5CNC5)c4)c3n2)cn1 [QFASG-1] | – |
| 3 | −0.85 | – | CC(=O)c1ccc(-c2cnn3ccc(C(N)=O)nc23)cc1 [QFASG-2] | – |
| 6 | −1.05 | – | CNC(=O)Nc1ccc(-c2ccn3ncc(-c4c[nH]c(C#N)n4)c3n2)cc1 [QFASG-3] | – |
| – | – | 98 | Cc1cc(N(C)c2ccc3ncc(NCC(=O)O)cc3c2)n(C2CC2)n1 [QFASG-4] | – |
| – | – | 71 | Cn1cc(-c2ccc3ncc(NC(=O)Nc4cccc(F)c4F)cc3c2)cn1 [QFASG-5] | – |
| – | – | 31 | N#Cc1ccc2ncc(NC(=O)Nc3cccnc3)cc2c1 [QFASG-6, 1-(6-cyanoquinolin-3-yl)-3-(pyridin-3-yl) urea] | ATR inhibition (in words) (ATR/ATRIP (h)): no ATR inhibition was observed; IC50 (ATR/ATRIP (h)): > 10 µM; IC50 (ATM (h)): 4 µM; hill slope (ATM dose-response) (ATM (h)): −1.1; IC50 (DNA-PK (h)): 8 µM; hill slope (DNA-PK dose-response) (DNA-PK (h)): −0.85 |

Reference: publication PMC11021760, “Quantum-assisted fragment-based automated structure generator (QFASG) for small molecule design: an in vitro study” (Frontiers in Chemistry, 2024)
